Experimental data: patent US6599706B1, “Recombinant PR-3 and assays employing the same” (Chiron Corporation, priority 1994, dated 2003)
Where two headings read alike, the source gives them in different places. Each block holds one compound with its values, some of them ahead of it. No end group written: not given here.

Experiments:
PR-3 [1] = molecular target: T1, PR-3 (Homo sapiens, UniProt P24158); conditions: cited from earlier work
T1 sequence (P24158 28-248): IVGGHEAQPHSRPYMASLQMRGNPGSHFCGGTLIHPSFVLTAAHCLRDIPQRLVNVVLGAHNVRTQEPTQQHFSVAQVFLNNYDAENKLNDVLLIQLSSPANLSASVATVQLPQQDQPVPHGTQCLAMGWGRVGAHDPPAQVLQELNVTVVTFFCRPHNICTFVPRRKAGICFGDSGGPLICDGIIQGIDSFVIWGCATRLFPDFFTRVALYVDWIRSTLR

[2] = molecular target: T2, purified native PR-3 from human neutrophils (Homo sapiens, UniProt P24158); test: 35S-labelled 26 kD TNFα autoradiographic convertase assay with purified native PR-3; format: biochemical; conditions: PR-3 0.3 μg/ml preincubated 30 minutes
T2 construct: from tissue; host or cells: human blood neutrophils
T2 sequence (P24158 28-248): T1 sequence (P24158 28-248)
Protocol: (§1) ^35S-cysteine-labelled 26 kD TNFα was used to assay for convertase inhibitors as follows. 25 μl of in vitro translated material was combined with 250 μl of solution containing convertase activity partially purified from uninduced HL60 cells, plus compounds to be assayed for inhibitory activity. The convertase was produced by harvesting 2×10^9 HL60 cells, disrupting the cells, and isolating S-1 (supernatant fluid from a 100,000 ×g centrifugation) and P-30 (pellet from a 30,000×g centrifugation) fractions totalling 18 and 6 ml, respectively. 250 μl of the P-30 fraction was used, although the S-1 fraction may also be used. The assay was carried out at 30° C. for 1 hour, essentially as described above. Next, the reaction mixture was immunoprecipitated with rabbit anti-human TNFα polyclonal antisera (produced from TNFα made in E. coli) and protein A Sepharose, pelleted and washed. The bound protein was eluted and electrophoresed using SDS-PAGE. The gel was fixed in 40% methanol, 10% acetic acid, soaked in Enlightening (Dupont), dried, and exposed to X-ray film which was subsequently developed.
The above assay was also used with purified native PR-3 from human neutrophils to test a variety of proteinase inhibitors for their ability to inhibit TNFα convertase activity, as shown in FIG. 5. Purified PR-3 (0.3 μg/ml) was preincubated for 30 minutes with the following inhibitors prior to addition of ^35S-labelled 26 kD-TNFα, and then assayed as described above: DCI (45 μM), α-2-macroglobulin (1 mg/ml), PMSF (20 μM), leupeptin (2 μg/ml), EDTA (10 mM), or pepstatin (2 μg/ml).

PR-3 [3] = molecular target: T1, PR-3; test: Inhibition of PR-3, summary statement of the assays shown below; format: biochemical
From the text: As shown below, PR-3 is inhibited by peptide diphenyl phosphonate inhibitors, elastinal, and dichloro-isocoumarin (DCI). The peptide diphenyl phosphonate inhibitors include Boc-Val-Pro-Val-p(OPh)2 and Boc-Ala-Pro-Val-p(OPh)2 (BOC-butoxycarbonyl). […] “Boc” means N-tert-butoxycarbonyl and “p(OPh)2” represents the diphenyl phosphonate moiety, wherein the formula—COOH group is replaced with P(=0)-(O-phenyl)2. See Oleksyszyn et al., Biochem 30:485 (1991). It will be appreciated that other peptide diphenyl phosphonate molecules may inhibit PR-3. Potential inhibitors may be constructed using the procedures shown in Oleksyszyn et al., supra, using small aliphatic peptides, for an example. Once the potential inhibitors are made, they may be tested in the assays shown below.

[4] = molecular target: T3, TNFα convertase/PR-3 (purified native PR-3) (Homo sapiens, UniProt P24158); test: Colorimetric Boc-Ala-ONp assay for convertase inhibition; format: biochemical
T3 construct: from tissue; host or cells: human blood neutrophils
T3 sequence (P24158 28-248): T1 sequence (P24158 28-248)
Protocol: TNFα convertase inhibition can also be measured by a colorimetric assay. In this type of assay, the actual activity of TNFα convertase is measured directly using a colorimetric TNFα convertase substrate. […] One such substrate is Boc-Ala-ONp (Bachem Bioscience, Inc., Philadelphia, Pa.). Other potentially useful substrates can be predicted from the structure of TNFα convertase and other serine proteases. Although the example herein uses purified native PR-3 as the TNFα convertase, it is contemplated that recombinant PR-3 or other TNFα convertases can be used in this assay as well.
Peptide diphenyl phosphonate inhibitors were synthesized and stored as lyophilized solids as described in Oleksyszyn and Powers, Biochem 30:485-493 (1991). Inhibitor solutions (10 mg/ml) were prepared in 100% dimethyl sulfoxide (DMSO) and diluted into aqueous buffers upon initiation of the experiments. 3,4, dichloro-isocoumarin was purchased from CalBiochem. Purified PR-3 (10 μl, 0.1 mg/ml) was mixed with varying concentrations of protease inhibitor ([…]) in 20 mM sodium phosphate buffer, pH 7.0, containing 0.1 M sodium chloride. Aliquots (40 μl) were removed at selected times and diluted 1/10 into a colorimetric assay for convertase, containing 0.5-1 mM Boc-Ala-ONp (prepared fresh from a 50 mM stock in 100% methanol) in 0.02 M sodium phosphate buffer, pH 7.0, 0.1 M sodium chloride. The increase in absorbance was monitored at 347 nm on a Hewlett Packard 8450A spectrophotometer, and using an extinction coefficient of 5.5×10^3 M^−1cm^−1 to calculate units of enzyme activity.
The peptide diphenyl phosphonates were tested in the colorimetric assay described in Example 3, for inhibition of TNFα convertase/PR-3 activity.

recombinant PR-3 (rPR-3) = molecular target: T4, recombinant PR-3 (rPR-3) (Homo sapiens, UniProt P24158); test: Residual recombinant PR-3 activity with Boc-Ala-ONp substrate; format: biochemical
T4 construct: made in house; host or cells: Sf9 insect cells (baculovirus, pAcC13preproPR-3)
T4 sequence (P24158 28-248 limits assumed): T1 sequence (P24158 28-248)
Protocol: Cytoplasmic anti-neutrophil cytoplasmic antibodies (c-ANCA) are human polyclonal antibodies derived from patients with Wegener's granulomatosis. […] Protein-A-purified human c-ANCA (supplied by Dr. Erik Hack, The Netherlands) was mixed with purified recombinant PR-3 (SEQ ID NO: 23) prepared as described above at various molar ratios of antibody to enzyme, and after incubation for 1 hour at 37° C., residual enzyme activity was measured using the Boc-Ala-ONp substrate as described in Example 4.
The two peptide diphosphonate inhibitors, Boc-Ala-Pro-Val-(OPh)2 and Boc-Val-Pro-Val-(OPh)2, were mixed at various concentrations with 125 ng of rPR-3 (prepared as described above) and incubated for 1 hour at 25° C. The residual enzyme activity was measured using the Boc-Ala-ONp substrate and compared to the same amount of enzyme incubated in the absence of inhibitor. Under these conditions, the Boc-Ala-Pro-Val-(OPh)2 inhibited PR-3 with an IC50 of about 10 μM and the Boc-Val-Pro-Val-(OPh)2 inhibited PR-3 with an IC50 of about 0.4 μM. […] Thus, recombinant PR-3 may be employed in detection of useful inhibitors of native PR-3.

[5] = molecular target: T5, TNFα convertase from HL60 cells (Homo sapiens, UniProt P24158); test: 35S-labelled 26 kD TNFα in vitro transcription/translation autoradiographic convertase assay with HL60 convertase (P-30 fraction); format: biochemical; conditions: 5 mg/ml; 30° C., 1 hour; SDS-PAGE autoradiography
T5 construct: solution containing convertase activity partially purified from uninduced HL60 cells; endogenous in cells
T5 sequence (P24158 28-248): T1 sequence (P24158 28-248)
From the text: A preferred assay procedure consists of in vitro transcription/translation to produce the 26 kD molecule, followed by treatment with convertase in the presence or absence of compounds being tested for convertase inhibitory activity. The procedure entails in vitro transcription/translation of the TNFα cDNA present in the pGEM vector. Thus, the sequence was removed from pB11 by Pst I digestion and was inserted into the Pst I site of pGEM-3 (obtainable from Promega Biotec, Madison Wis.). The resulting plasmid, termed pGEM-TNFα14, was amplified in E. coli using established techniques, and plasmid DNA was prepared according to the procedure of Birnboim and Doly, described above. Plasmid DNA was transcribed in vitro by linearizing it with Hind III, and the linearized plasmid templates were used to prepare capped transcripts with T7 RNA polymerase and an in vitro transcription kit supplied by Promega Biotec (Madison, Wis.).
The mRNA produced above was translated in vitro in the presence of ^35S-cysteine to produce ^35S-cysteine-labelled 26 kD TNFα. A rabbit reticulocyte lysate translation kit was used, also supplied by Promega Biotec, and the conditions recommended by the manufacturer were followed.
as §1, with “The bound protein was eluted and electrophoresed using SDS-PAGE. The gel was fixed in 40% methanol, 10% acetic acid, soaked in Enlightening (Dupont), dried, and exposed to X-ray film which was subsequently developed.” left out

Compound: O=S(=O)(F)Cc1ccccc1 [PMSF, phenylmethyl-sulfonyl fluoride]
inhibition of PR-3 (PR-3 [1]): inhibited
inhibition of TNFα convertase activity of purified PR-3 ([2]; 20 μM): significant inhibitory activity

Compound: CC(C)C(NC(=O)[C@@H]1CCCN1C(=O)[C@@H](NC(=O)OC(C)(C)C)C(C)C)P(=O)(Oc1ccccc1)Oc1ccccc1 (stereo partly drawn) [VPV, Boc-Val-Pro-Val-p(OPh)2]
inhibition of PR-3 (PR-3 [3]): inhibited
inhibition of TNFα convertase/PR-3 activity ([4]; 35 μM): demonstrated inhibitory activity
IC50 (recombinant PR-3 (rPR-3)): ~400 nM

inhibition of PR-3 (PR-3 [3]): inhibited
inhibition of the convertase (conversion of 26 kD TNFα) [5]: inhibit the convertase
Compound: CC(C)C[C@H](NC(=O)N[C@H](C(=O)N[C@@H](CCC(N)=O)C(=O)N[C@@H](C)C=O)[C@@H]1CCNC(=N)N1)C(=O)O [elastinal]

Compound: AQAVRSSS
inhibition of convertase activity ([4]; 50 μM, Boc-Ala-ONp colorimetric assay with PR-3): did not inhibit convertase activity significantly

Compound: α1-antitrypsin: protein reported to inhibit PR-3
inhibition of PR-3 (PR-3 [1]): inhibited

inhibition of TNFα convertase activity of purified PR-3 ([2]; 1 mg/ml): significant inhibitory activity
Compound: α-2-macroglobulin: proteinase inhibitor tested against purified PR-3
inhibition of PR-3 (PR-3 [1]): inhibited
